From patent publication US20150218654A1, “METHODS FOR PREDICTING MULTIPLE MYELOMA TREATMENT RESPONSE” (INSERM (INSTITUT NATIONAL DE LA SANTÉ ET DE LA RE- CHERCHE …, priority 2012, published 2015)
Like-named read-outs stand apart in the source and are kept apart here.

Test system: human myeloma cell lines (HMCLs)
Assay: Growth assay for myeloma cells (Cell Titer Glo, 4 days, graded DNMTi concentrations)
Type: cell-based
Conditions: for IC50: Homo sapiens, 96 h, 4 days
Experimental: HMCLs were cultured for 4 days in 96-well flat-bottom microtiter plates in RPMI 1640 medium, 10% FCS, 2 ng/ml IL-6 culture medium (control), with graded decitabine concentrations. Data are mean values plus or minus standard deviation (SD) of 5 experiments determined on sextuplet culture wells.
HMCLs were cultured for 4 days in 96-well flat-bottom microtiter plates in RPMI 1640 medium, 10% FCS, 2 ng/ml IL-6 culture medium (control), and graded 5-azacitidine concentrations. Data are mean values plus or minus standard deviation (SD) of 5 experiments determined on sextuplet culture wells.
HMCLs were cultured for 4 days in 96-well flat-bottom microtiter plates in RPMI 1640 medium, 10% FCS, 2 ng/ml IL-6 culture medium (control), with graded decitabine concentrations. Cell growth was evaluated by quantifying intracellular ATP amount with a Cell Titer Glo Luminescent Assay (Promega, Madison, Wis.) with a Centro LB 960 luminometer (Berthold Technologies, Bad Wildbad, Germany).
The inventors sought to determine whether DM Score could predict for the sensitivity of 10 HMCLs to DNMT inhibitor. Starting from a large cohort of 40 HMCLs (22), the 10 HMCLs with the highest or lowest DM Score were selected to assay decitabine sensitivity.
HMCLs were cultured with graded 5-azacitidine (Sigma, St. Louis, Mo.) concentrations. HMCLs cell growth was quantified with a Cell Titer Glo Luminescent Assay (Promega, Madison, Wis.) and half inhibitory concentration (IC50) was determined using GraphPad Prism (http://www.graphpad.com/scientific-software/prism/).

## Nc1ncn([C@H]2C[C@H](O)[C@@H](CO)O2)c(=O)n1 [decitabine, 5-Aza-2′-deoxycytidine]
HMCLs with highest DM Score versus low DM Score, P=0.01
  fold higher decitabine sensitivity: 11 fold
decitabine, 5 HMCLs with low DM Score, read-out: IC50 range
  IC50: 2920 to 60800 nM
read-out: IC50 range, decitabine, 5 HMCLs with the highest DM Score
  IC50: 150 to 2220 nM
read-out: median IC50, decitabine, 5 HMCLs with low DM Score
  IC50: 7940 nM
read-out: median IC50, decitabine, 5 HMCLs with the highest DM Score
  IC50: 680 nM
XG6, XG20, XG13, SKMM2, LP1 (lowest DM Score)
  sensitivity class of HMCLs: Resistant
XG12, XG16, XG19, JJN3, RPMI8226 (highest DM Score)
  sensitivity class of HMCLs: Sensitive
